Laboratory results taken from patent publication US10039839B2, “Compounds that participate in cooperative binding and uses thereof” (Warp Drive Bio, Inc., priority 2015, dated 2018).
Square brackets hold non-standard residues; d marks the D form. Peptide text beside a SMILES is read from it. MeBmt = C/C=C/C[C@@H](C)[C@@H](O)[C@H](NC)C(=O)O; NMeT = CN[C@H](C(=O)O)[C@@H](C)O; NMeL = CN[C@@H](CC(C)C)C(=O)O; Tle = CC(C)(C)[C@H](N)C(=O)O; NMeV = CN[C@H](C(=O)O)C(C)C; NMeA = CN[C@@H](C)C(=O)O; dNMeA = CN[C@H](C)C(=O)O; Abu = CC[C@H](N)C(=O)O; Sar = CNCC(=O)O

What follows are molecules tested against T1, Cyclophilin A (Homo sapiens, UniProt P62937) (assay: biochemical). Details: not given.
T1 construct: made in house
Type: binding
Protocol: This protocol utilizes Perkin Elmers AlphaLISA technology platform to detect cyclosporine analogues by measuring the inhibition of binding of biotinylated Cyclosporin A to FLAG tagged Cyclophilin A.
Add 20 uL of 6 nM Biotinylated CsA working stock to each well of the 96-well plate. Add 1 uL of test compound (100% DMSO) to each well of the plate using the Janus MTD head and P20 tips (except control wells). Add 1 uL of DMSO to negative control wells and 1 uL of 500 uM Cyclosporin A solution to positive control wells. In the dark, add 20 uL of combined Donor/Acceptor beads to each well. Incubate in the dark for 30 minutes at room temperature. […] Incubate in the dark for 60 minutes at room temperature.

T1 sequence (P62937 whole entry, species assumed): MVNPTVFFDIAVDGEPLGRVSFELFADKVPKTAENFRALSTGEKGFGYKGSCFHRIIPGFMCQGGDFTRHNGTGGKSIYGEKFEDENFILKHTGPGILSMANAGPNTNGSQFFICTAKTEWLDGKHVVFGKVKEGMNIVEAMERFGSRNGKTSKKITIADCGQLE

Row | SMILES | % inhibition of CsA binding to Cyclophilin A [%]
1 | C/C=C/C[C@@H](C)[C@@H](O)[C@H]1C(=O)N[C@@H](CC)C(=O)N(C)CC(=O)N(C)[C@@H](C)C(=O)N[C@@H](C)C(=O)N(C)CC(=O)N[C@@H](C)C(=O)N[C@H](C)C(=O)N(C)[C@@H](CC(C)C)C(=O)N(C)[C@@H](CC(C)C)C(=O)N(C)[C@@H](C(C)C)C(=O)N1C [C18] (cyclo([MeBmt][Abu][Sar][NMeA]A[Sar]A[dA][NMeL][NMeL][NMeV])) | 97.88
2 | C/C=C/C[C@@H](C)[C@@H](O)[C@H]1C(=O)N[C@@H](CC)C(=O)N(C)CC(=O)N(C)[C@H](C)C(=O)N[C@@H](CC(C)C)C(=O)N(C)[C@@H](C)C(=O)N[C@@H](C)C(=O)N[C@H](C)C(=O)N(C)[C@@H](CC(C)C)C(=O)N(C)[C@@H](CC(C)C)C(=O)N(C)[C@@H](C(C)C)C(=O)N1C [C11] (cyclo([MeBmt][Abu][Sar][dNMeA]L[NMeA]A[dA][NMeL][NMeL][NMeV])) | 93.73
3 | C/C=C/C[C@@H](C)[C@@H](O)[C@H]1C(=O)N[C@@H](CC)C(=O)N(C)CC(=O)N(C)[C@@H]([C@@H](C)O)C(=O)N[C@@H](C(C)(C)C)C(=O)N(C)[C@@H](C)C(=O)N[C@@H](CC(C)C)C(=O)N[C@H](C)C(=O)N(C)[C@@H](CC(C)C)C(=O)N(C)[C@@H](CC(C)C)C(=O)N(C)[C@@H](C(C)C)C(=O)N1C [C75] (cyclo([MeBmt][Abu][Sar][NMeT][Tle][NMeA]L[dA][NMeL][NMeL][NMeV])) | 96.12

Same assay, conditions: read-out: IC50 value of CsA binding to Cyclophilin A

Row | SMILES | IC50 [nM]
4 | C/C=C/C[C@@H](C)[C@@H](O)[C@H]1C(=O)N[C@@H](CC)C(=O)N(C)CC(=O)N(C)[C@H](C)C(=O)N[C@@H](CC(C)C)C(=O)N(C)[C@@H](C)C(=O)N[C@@H](C)C(=O)N[C@H](C)C(=O)N(C)[C@@H](CC(C)C)C(=O)N(C)[C@@H](CC(C)C)C(=O)N(C)[C@@H](C(C)C)C(=O)N1C [C11] (cyclo([MeBmt][Abu][Sar][dNMeA]L[NMeA]A[dA][NMeL][NMeL][NMeV])) | < 2000

These molecules were tested on HeLa-FKBP12 cells (assay: Biosensor cell permeability assay, FKBP binding compounds). Details: 72 hrs.
Type: cell-based
Protocol: This protocol utilizes a modified FKBP or cyclophilin destabilizing mutant to determine the bioactivity of FKBP binding compounds or cyclophilin binding compounds in whole cell assay.
Plate HeLa-FKBP12 cells (for FKBP binding compounds) or HeLa-Cyclophilin A cells (for cyclophilin binding compounds) and seed overnight at 5 k/well (approximately ˜18 hrs.). Using a multi-channel pipet, take out the old media and add ˜125 ul of new media with compounds. Compounds are diluted using DMEM without Phenol Red, 10% FBS, 1× Sodium Pyruvate, 1× Glutamax. Add 125 ul of media with compound per well. Cells are treated with compounds at concentration: 30, 10, 3.33, 1.11, 0.37, 0.12, 0.04 and 0.013 uM. Time points are taken at 72 hrs and plate read using plate reader with excitation/emission: 575/620.
Cell binding/permeability is calculated in fold-change (Total RFU of treated samples/total RFU of DMSO treated samples or total RFU above background (Total RFU minus total RFU of DMSO treated samples).

Row | SMILES | IC50 [nM]
5 | COC1CC(CC(C)C2CCC/C=C/C/C(C)=C/CC3OC(O)(C(=O)C(=O)N4CCCCC4C(=O)O2)C(C)CC3C)CCC1O (stereo not drawn) [F19] | < 1000
6 | CC[C@H](Cc1ccccc1)[C@@H]1/C=C/C/C=C/C[C@@H](C)[C@H](O)[C@@H](C)[C@@H]2CC[C@@H](C)C(=O)C(O)(O2)C(=O)N2CCC[C@H]2C(=O)O1 [F4] | < 1000
7 | CC[C@H](Cc1ccccc1)[C@@H]1/C=C/C=C/CC[C@@H](C)C(=O)[C@@H](C)[C@@H]2CC[C@@H](C)[C@@](O)(O2)C(=O)C(=O)N2CCCC[C@H]2C(=O)O1 [F22] | > 1000
8 | CC[C@H](Cc1cccc(O)c1)[C@@H]1/C=C/C=C/CC[C@@H](C)[C@H](O)[C@@H](C)[C@@H]2CC[C@@H](C)[C@@](O)(O2)C(=O)C(=O)N2CCCC[C@H]2C(=O)O1 [F21] | < 1000
9 | CC[C@H](Cc1cccc(O)c1)[C@@H]1/C=C/C/C=C/C[C@@H](C)[C@H](O)[C@@H](C)[C@@H]2CC[C@@H](C)C(=O)C(O)(O2)C(=O)N2CCCC[C@H]2C(=O)O1 [F20] | < 1000

These molecules were tested against FKBP12 (Homo sapiens, UniProt P62942) (assay: AlphaLISA: inhibition of binding of biotinylated FK506 to FLAG tagged FKBP12). Details: not given.
Parameters: made in house
Protocol: This protocol utilizes Perkin Elmers AlphaLISA technology platform to detect FKBP binders by measuring the inhibition of binding of biotinylated FK506 to FLAG tagged FKBP12.
Add 20 uL of 12.5 nM FKBP-FLAG working stock to each well of the 96-well plate. Add 1 uL of test compound (100% DMSO) to each well of the plate using the Janus MTD head and P20 tips (except control wells). Add 1 uL of DMSO to negative control wells and 1 uL of 50 uM FK506 solution to positive control wells. In the dark, add 20 uL of combined Donor/Acceptor beads to each well. Incubate in the dark for 30 minutes at room temperature. In the dark, add 10 uL of 5 nM biotinylated FK506 working stock to each well. Incubate in the dark for 60 minutes at room temperature. Protect plate from light until reading on Biotek Synergy2 Plate Reader; Alphalisa 96-well protocol (680 excitation/615 emission).

Chain of FKBP12 (P62942 whole entry, species assumed): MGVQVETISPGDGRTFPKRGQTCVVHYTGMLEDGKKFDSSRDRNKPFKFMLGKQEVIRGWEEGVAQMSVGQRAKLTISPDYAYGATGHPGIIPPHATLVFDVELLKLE

Row | SMILES | IC50 [nM]
10 | COC1CC(CC(C)C2CCC/C=C/C/C(C)=C/CC3OC(O)(C(=O)C(=O)N4CCCCC4C(=O)O2)C(C)CC3C)CCC1O (stereo not drawn) [F19] | 0.22
11 | CCC(/C=C(\C)C(O)CCC(C)/C=C/C(O)C(C)C1CCC(C)C(O)(C(=O)C(=O)N2CCCCC2C(=O)O)O1)C/C(C)=C/C1=CC(OC)C(O)C=C1 (stereo not drawn) [F15] | 1930

Same assay, conditions: read-out: Binding affinity to FKBP12 (by displacement of FK506)

Row | SMILES | IC50 [nM]
12 | CC[C@H](Cc1ccccc1)[C@@H]1CCCCCC(=O)[C@@H](C)[C@H](O)[C@@H](C)[C@@H]2CC[C@@H](C)[C@@](O)(O2)C(=O)C(=O)N2CCCC[C@H]2C(=O)O1 [F24, (S)-1-(2-((2R,3R,6S)-6-((2R,3R,4S,6E,9E,11R,12R)-12-benzyl-3,11-dihydroxy-4-methyl-5-oxotetradeca-6,9-dien-2-yl)-2-hydroxy-3-methyltetrahydro-2H-pyran-2-yl)-2-oxoacetyl)piperidine-2-carboxylic acid C-11 lactone] | 0.21
